The source of these data is patent publication US20250171516A1, “PEPTIDE ACIDS AS A GLP1R AGONIST AND ANTIBODY-DRUG CONJUGATES THEREOF” (Regeneron Pharmaceuticals, Inc., priority 2023, published 2025).

In general, EC50 refers to the midpoint of the concentration-response curve.

Read-outs that look alike come from different tables or passages of the source. Starred links: 1 amine or outer side, 2 acyl side, 3 side chain; linkers in the order of their positions; H or OH if unused. Non-standard residues stand in square brackets, D forms with d. Residues, ends and D or L forms follow the SMILES beside them. ξ: configuration not given here. *: point of attachment. X3 = CCc1cc(OCCCCn2cc(COCCOCCOCCOCCOCCOCCOCCOCCOCCOCCOCCOCCN)nn2)ccc1-c1ccc(C[C@H](N[*:1])C(=O)[*:2])cc1; X1 = CCc1cc(OCCCCn2cc(COCCOCCOCCOCCOCCOCCOCCOCCN)nn2)ccc1-c1ccc(C[C@H](N[*:1])C(=O)[*:2])cc1; Bip(2'-Et,4'-O(CH2)4N3) = CCc1cc(OCCCCN=[N+]=[N-])ccc1-c1ccc(C[C@H](N)C(=O)O)cc1; Bip(2'-Et,4'-O(CH2)4NH2) = CCc1cc(OCCCCN)ccc1-c1ccc(C[C@H](N)C(=O)O)cc1; Malonyl(2,2-Me2,histaminyl) = CC(C)(C(=O)NCCc1cnc[nH]1)C(=O)*; Nva(5-(3,5-Me2Ph)) = Cc1cc(C)cc(CCC[C@H](N)C(=O)O)c1; Ala(1H-tetrazol-5-yl) = N[C@@H](Cc1nnn[nH]1)C(=O)O; αMePhe(2-F) = C[C@](N)(Cc1ccccc1F)C(=O)O; ξαMePhe(2-F) = CC(N)(Cc1ccccc1F)C(=O)O; tBu = CC(C)(C)* A value given as a limit tells only on which side of the number the result lay.

In this assay the target is GLP-1R (Homo sapiens, UniProt P43220). Kind of assay: GLP-1R cAMP assay of peptides (Tables 10, 14, 15). The format is cell-based.
GLP-1R, sequence (P43220 24-463): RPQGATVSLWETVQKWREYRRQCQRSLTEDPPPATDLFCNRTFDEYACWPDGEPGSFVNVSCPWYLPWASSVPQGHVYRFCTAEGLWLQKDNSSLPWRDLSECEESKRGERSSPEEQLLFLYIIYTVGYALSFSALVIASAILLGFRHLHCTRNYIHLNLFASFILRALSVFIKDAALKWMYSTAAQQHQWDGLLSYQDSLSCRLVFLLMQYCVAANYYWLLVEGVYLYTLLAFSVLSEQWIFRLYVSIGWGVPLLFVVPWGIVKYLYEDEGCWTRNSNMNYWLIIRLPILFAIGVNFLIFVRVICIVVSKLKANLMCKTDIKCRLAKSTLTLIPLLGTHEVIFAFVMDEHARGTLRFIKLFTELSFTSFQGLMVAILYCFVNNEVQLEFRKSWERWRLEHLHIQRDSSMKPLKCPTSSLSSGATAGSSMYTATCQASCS
The mark [1] stands for this setting: Table 10, read-out: GLP-1R CAMP EC50.
[2] abbreviates: Table 14, peptide amides, read-out: cAMP EC50.

Turning to `CCc1cc(OCCCCn2cc(COCCOCCOCCOCCOCCOCCOCCOCCN)nn2)ccc1-c1ccc(C[C@H](NC(=O)[C@H](CC(=O)O)NC(=O)[C@H](CO)NC(=O)[C@@H](NC(=O)[C@](C)(Cc2ccccc2F)NC(=O)[C@@H](NC(=O)CNC(=O)[C@H](Cc2nnn[nH]2)NC(=O)C(C)(C)C(=O)NCCc2cnc[nH]2)[C@@H](C)O)[C@@H](C)O)C(N)=O)cc1` ({Malonyl(2,2-Me2,histaminyl)}-[Ala(1H-tetrazol-5-yl)]GT[αMePhe(2-F)]TSD[X1]-NH2), the “GLP-1R CAMP Max” value (Table 10) was 104.11%. Besides, under setting [1], the EC50 came to 59.6 nM.

For `CCc1cc(OCCCCn2cc(COCCOCCOCCOCCOCCOCCOCCOCCOCCOCCOCCOCCN)nn2)ccc1-c1ccc(C[C@H](NC(=O)[C@H](CC(=O)O)NC(=O)[C@H](CO)NC(=O)[C@@H](NC(=O)[C@](C)(Cc2ccccc2F)NC(=O)[C@@H](NC(=O)CNC(=O)[C@H](Cc2nn[nH]n2)NC(=O)C(C)(C)C(=O)NCCc2c[nH]cn2)[C@@H](C)O)[C@@H](C)O)C(=O)N[C@@H](CCCc2cc(C)cc(C)c2)C(N)=O)cc1` ({Malonyl(2,2-Me2,histaminyl)}-[Ala(1H-tetrazol-5-yl)]GT[αMePhe(2-F)]TSD[X3][Nva(5-(3,5-Me2Ph))]-NH2), under setting [2], the EC50 was found to be 1.89 nM.

Regarding `CCc1cc(OCCCCN=[N+]=[N-])ccc1-c1ccc(C[C@H](NC(=O)[C@H](CC(=O)O)NC(=O)[C@H](COC(C)(C)C)NC(=O)[C@@H](NC(=O)C(C)(Cc2ccccc2F)NC(=O)[C@@H](NC(=O)CNC(=O)[C@H](Cc2nnn[nH]2)NC(=O)C(C)(C)C(=O)NCCc2cnc[nH]2)[C@@H](C)O)[C@@H](C)O)C(=O)N[C@@H](CCCc2cc(C)cc(C)c2)C(=O)O)cc1` (stereo partly drawn) ({Malonyl(2,2-Me2,histaminyl)}-[Ala(1H-tetrazol-5-yl)]GT[ξαMePhe(2-F)]TS(tBu)D[Bip(2'-Et,4'-O(CH2)4N3)][Nva(5-(3,5-Me2Ph))]-OH), the “GLP-1R CAMP Max” value (Table 10) came to 122.44%. Moreover, the EC50 under setting [1] amounted to 2.94 nM.

For the molecule `CCc1cc(OCCCCN=[N+]=[N-])ccc1-c1ccc(C[C@H](NC(=O)[C@H](CC(=O)O)NC(=O)[C@H](CO)NC(=O)[C@@H](NC(=O)C(C)(Cc2ccccc2F)NC(=O)[C@@H](NC(=O)CNC(=O)[C@H](Cc2nnn[nH]2)NC(=O)C(C)(C)C(=O)NCCc2cnc[nH]2)[C@@H](C)O)[C@@H](C)O)C(=O)O)cc1` (stereo partly drawn) [AA10-AA9-AA8-AA7-AA6-AA5-AA4-AA3-AA2-OH], where the note is “Table 10”, the “GLP-1R CAMP Max” value was determined as 97.92%. The EC50 under setting [1] was 51.2 nM.

On to `C[C@@H](O)[C@H](NC(=O)CNC(=O)[C@H](Cc1nn[nH]n1)NC(=O)C(C)(C)C(=O)NCCc1cnc[nH]1)C(=O)N[C@@](C)(Cc1ccccc1F)C(=O)N[C@H](C(=O)N[C@@H](CO)C(=O)N[C@@H](CC(=O)O)C(=O)O)[C@@H](C)O` [AA10-AA9-AA8-AA7-AA6-AA5-AA4-AA3-OH], for which the “GLP-1R CAMP Max” value (Table 10) was −0.25%. Also, the concentration for a half-maximal effect (EC50) under setting [1] was over 1000 nM.

Turning to `C[C@@H](O)[C@H](NC(=O)CNC(=O)[C@H](Cc1nn[nH]n1)NC(=O)C(C)(C)C(=O)NCCc1cnc[nH]1)C(=O)N[C@@](C)(Cc1ccccc1F)C(=O)N[C@H](C(=O)N[C@@H](CO)C(=O)O)[C@@H](C)O` [AA10-AA9-AA8-AA7-AA6-AA5-AA4-OH] ({Malonyl(2,2-Me2,histaminyl)}-[Ala(1H-tetrazol-5-yl)]GT[αMePhe(2-F)]TS-OH), where the note is “Table 10”, the “GLP-1R CAMP Max” value is recorded as −0.86%. Besides, under setting [1], the EC50 is over 1000 nM.

On to `C[C@@H](O)[C@H](NC(=O)[C@](C)(Cc1ccccc1F)NC(=O)[C@@H](NC(=O)CNC(=O)[C@H](Cc1nn[nH]n1)NC(=O)C(C)(C)C(=O)NCCc1cnc[nH]1)[C@@H](C)O)C(=O)O` [AA10-AA9-AA8-AA7-AA6-AA5-OH] ({Malonyl(2,2-Me2,histaminyl)}-[Ala(1H-tetrazol-5-yl)]GT[αMePhe(2-F)]T-OH), for which the “GLP-1R CAMP Max” value (Table 10) is −1.23%. The EC50 under setting [1] was over 1000 nM.

Regarding `C[C@@H](O)[C@H](NC(=O)CNC(=O)[C@H](Cc1nn[nH]n1)NC(=O)C(C)(C)C(=O)NCCc1cnc[nH]1)C(=O)N[C@@](C)(Cc1ccccc1F)C(=O)O` [AA10-AA9-AA8-AA7-AA6-OH] ({Malonyl(2,2-Me2,histaminyl)}-[Ala(1H-tetrazol-5-yl)]GT[αMePhe(2-F)]-OH), for the setting “Table 10”, the “GLP-1R CAMP Max” value was −1.13%. Further, the EC50 under setting [1] was over 1000 nM.

Take `C[C@@H](O)[C@H](NC(=O)CNC(=O)[C@H](Cc1nn[nH]n1)NC(=O)C(C)(C)C(=O)NCCc1cnc[nH]1)C(=O)O` [AA10-AA9-AA8-AA7-OH]: for the setting “Table 10”, the “GLP-1R CAMP Max” value is listed as −0.52%. For the same molecule, the EC50 under setting [1] was over 1000 nM.

`CC(C)(C(=O)NCCc1cnc[nH]1)C(=O)N[C@@H](Cc1nn[nH]n1)C(=O)NCC(=O)O` [AA10-AA9-AA8-OH]: the “GLP-1R CAMP Max” value (Table 10) was −1.39%. Moreover, the EC50 under setting [1] was over 1000 nM.

In the case of `CCc1cc(OCCCCN=[N+]=[N-])ccc1-c1ccc(C[C@H](NC(=O)[C@H](CC(=O)O)NC(=O)[C@H](CO)NC(=O)[C@@H](NC(=O)[C@](C)(Cc2ccccc2F)NC(=O)[C@@H](NC(=O)CNC(=O)[C@H](Cc2nn[nH]n2)NC(=O)C(C)(C)C(=O)NCCc2cnc[nH]2)[C@@H](C)O)[C@@H](C)O)C(=O)N[C@@H](CCCc2cc(C)cc(C)c2)C(N)=O)cc1` [M2361] ({Malonyl(2,2-Me2,histaminyl)}-[Ala(1H-tetrazol-5-yl)]GT[αMePhe(2-F)]TSD[Bip(2'-Et,4'-O(CH2)4N3)][Nva(5-(3,5-Me2Ph))]-NH2), the EC50 under setting [2] worked out at 0.359 nM.

As to `CCc1cc(OCCCCN=[N+]=[N-])ccc1-c1ccc(C[C@H](NC(=O)[C@H](CC(=O)O)NC(=O)[C@H](CO)NC(=O)[C@@H](NC(=O)[C@](C)(Cc2ccccc2F)NC(=O)[C@@H](NC(=O)CNC(=O)[C@H](Cc2nnn[nH]2)NC(=O)C(C)(C)C(=O)NCCc2cnc[nH]2)[C@@H](C)O)[C@@H](C)O)C(=O)N[C@@H](CCCc2cc(C)cc(C)c2)C(N)=O)cc1` [M2361] ({Malonyl(2,2-Me2,histaminyl)}-[Ala(1H-tetrazol-5-yl)]GT[αMePhe(2-F)]TSD[Bip(2'-Et,4'-O(CH2)4N3)][Nva(5-(3,5-Me2Ph))]-NH2), the EC50 under setting [2] amounted to 0.497 nM.

As to `CCc1cc(OCCCCN=[N+]=[N-])ccc1-c1ccc(C[C@H](NC(=O)[C@H](CC(=O)O)NC(=O)[C@H](CO)NC(=O)[C@@H](NC(=O)[C@](C)(Cc2ccccc2F)NC(=O)[C@@H](NC(=O)CNC(=O)[C@@H](N)Cc2nn[nH]n2)[C@@H](C)O)[C@@H](C)O)C(=O)N[C@@H](CCCc2cc(C)cc(C)c2)C(N)=O)cc1` [M2383] (H-[Ala(1H-tetrazol-5-yl)]GT[αMePhe(2-F)]TSD[Bip(2'-Et,4'-O(CH2)4N3)][Nva(5-(3,5-Me2Ph))]-NH2), the EC50 under setting [2] was 280 nM.

Regarding `CCc1cc(OCCCCN)ccc1-c1ccc(C[C@H](NC(=O)[C@H](CC(=O)O)NC(=O)[C@H](CO)NC(=O)[C@@H](NC(=O)[C@](C)(Cc2ccccc2F)NC(=O)[C@@H](NC(=O)CNC(=O)[C@H](Cc2nnn[nH]2)NC(=O)C(C)(C)C(=O)NCCc2cnc[nH]2)[C@@H](C)O)[C@@H](C)O)C(=O)N[C@@H](CCCc2cc(C)cc(C)c2)C(N)=O)cc1` [M2642] ({Malonyl(2,2-Me2,histaminyl)}-[Ala(1H-tetrazol-5-yl)]GT[αMePhe(2-F)]TSD[Bip(2'-Et,4'-O(CH2)4NH2)][Nva(5-(3,5-Me2Ph))]-NH2), the EC50 under setting [2] was determined as 0.0502 nM.

Consider `CCc1cc(OCCCCn2cc(COCCOCCOCCOCCOCCOCCOCCOCCN)nn2)ccc1-c1ccc(C[C@H](NC(=O)[C@H](CC(=O)O)NC(=O)[C@H](CO)NC(=O)[C@@H](NC(=O)[C@](C)(Cc2ccccc2F)NC(=O)[C@@H](NC(=O)CNC(=O)[C@@H](N)Cc2nnn[nH]2)[C@@H](C)O)[C@@H](C)O)C(=O)N[C@@H](CCCc2cc(C)cc(C)c2)C(N)=O)cc1` [M6295] (H-[Ala(1H-tetrazol-5-yl)]GT[αMePhe(2-F)]TSD[X1][Nva(5-(3,5-Me2Ph))]-NH2), for which the EC50 under setting [2] came out at 351 nM.
